The results in this text go back to patent US20230091047A1 (priority 2019, published 2023).

For data set [1], the system named is HBV (HepG2.117 cell line, inducibly HBV producing). Put plainly: Anti-HBV activity: intracellular HBV DNA by real-time PCR in HepG2.117 cells after 3 days of treatment. The class given is cell-based, hepatitis B virus. The settings on record: Hepatitis B virus, HepG2.117, 72 h, HepG2.117 cells, 3 days of treatment, intracellular HBV DNA by real-time PCR; mean value; read-out: EC50 (μM, mean value). Summed up: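 Readout is intracellular HBV DNA, measured by real-time PCR with HBV-specific primers and probe after 3 days of exposure to serial compound dilutions. Cells are the stable HepG2.117 line, where HBV replication is induced in the absence of doxycycline.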

Data set [2] in a line: in vitro. The class given is cell-based. Particulars: human, HepG2 or HepG2.117 cells, 3-days incubation (unmarked values), ATPlite; mean value. Summed up: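 Luminescent ATP quantitation served as the viability endpoint following a 3- or 4-day incubation with test compounds.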

Take `CNC(=O)c1cccc(-n2c(NC(C)C)nc3c(c2=O)C[C@@H](C)N(C(=O)c2ccc(Cl)c(Cl)c2)C3)c1` [Compound C232, 3-[(6R)-7-(3,4-dichlorobenzoyl)-6-methyl-4-oxo-2-[(propan-2-yl)amino]-5,6,7,8-tetrahydropyrido[3,4-d]pyrimidin-3(4H)-yl]-N-methylbenzamide]: the EC50 in data set [1] came out at 0.15 µM. Further, the CC50 at 3 days in data set [2] was above 50 µM.
For `COC(=O)C12CC(n3c(NC(C)C)nc4c(c3=O)C[C@@H](C)N(C(=O)c3ccc(Cl)c(Cl)c3)C4)(C1)C2` [Compound C236] the same measures were above 50 µM and above 50 µM.
The matching figures for `CC(C)Nc1nc2c(c(=O)n1-c1ccc(-c3ncccn3)cc1)C[C@@H](C)N(C(=O)c1ccc(Cl)c(Cl)c1)C2` [Compound C237, (6R)-7-(3,4-dichlorobenzoyl)-6-methyl-2-[(propan-2-yl)amino]-3-[4-(pyrimidin-2-yl)phenyl]-5,6,7,8-tetrahydropyrido[3,4-d]pyrimidin-4(3H)-one]: 0.23 µM and above 50 µM.
For `CC(C)Nc1nc2c(c(=O)n1-c1ccc(-c3nccs3)cc1)CCN(C(=O)c1ccc(Cl)c(Cl)c1)C2` [Compound C238, 7-(3,4-dichlorobenzoyl)-2-[(propan-2-yl)amino]-3-[4-(1,3-thiazol-2-yl)phenyl]-5,6,7,8-tetrahydropyrido[3,4-d]pyrimidin-4(3H)-one] the same measures were 0.56 µM and above 50 µM.
Regarding `CC(C)Nc1nc2c(c(=O)n1-c1ccc(-c3nccs3)cc1)C[C@@H](C)N(C(=O)c1ccc(Cl)c(Cl)c1)C2` [Compound C240, (6R)-7-(3,4-dichlorobenzoyl)-6-methyl-2-[(propan-2-yl)amino]-3-[4-(1,3-thiazol-2-yl)phenyl]-5,6,7,8-tetrahydropyrido[3,4-d]pyrimidin-4(3H)-one], the EC50 in data set [1] was found to be 0.13 µM. The compound also came in with a CC50 at 3 days in data set [2] above 50 µM.
With `CC(C)Nc1nc2c(c(=O)n1-c1ccc(-c3cc[nH]n3)cc1)C[C@@H](C)N(C(=O)c1ccc(Cl)c(Cl)c1)C2` [Compound C241, (6R)-7-(3,4-dichlorobenzoyl)-6-methyl-2-[(propan-2-yl)amino]-3-[4-(1H-pyrazol-3-yl)phenyl]-5,6,7,8-tetrahydropyrido[3,4-d]pyrimidin-4(3H)-one], the EC50 in data set [1] is 0.19 µM. Further, the CC50 at 3 days in data set [2] was 33.1 µM.
The matching figures for `Cc1nnc(-c2ccc(-n3c(NC(C)C)nc4c(c3=O)C[C@@H](C)N(C(=O)c3ccc(Cl)c(Cl)c3)C4)cc2)o1` [Compound C242, (6R)-7-(3,4-dichlorobenzoyl)-6-methyl-3-[4-(5-methyl-1,3,4-oxadiazol-2-yl)phenyl]-2-[(propan-2-yl)amino]-5,6,7,8-tetrahydropyrido[3,4-d]pyrimidin-4(3H)-one]: 0.28 µM and above 50 µM.
For `Cc1cc(-c2ccc(-n3c(NC(C)C)nc4c(c3=O)C[C@@H](C)N(C(=O)c3ccc(Cl)c(Cl)c3)C4)cc2)n[nH]1` [Compound C243, (6R)-7-(3,4-dichlorobenzoyl)-6-methyl-3-[4-(5-methyl-1H-pyrazol-3-yl)phenyl]-2-[(propan-2-yl)amino]-5,6,7,8-tetrahydropyrido[3,4-d]pyrimidin-4(3H)-one] the same measures were 0.23 µM and 28.7 µM.
In the case of `Cc1nc(-c2ccc(-n3c(NC(C)C)nc4c(c3=O)C[C@@H](C)N(C(=O)c3ccc(Cl)c(Cl)c3)C4)cc2)c[nH]1` [Compound C244, (6R)-7-(3,4-dichlorobenzoyl)-6-methyl-3-[4-(2-methyl-1H-imidazol-4-yl)phenyl]-2-[(propan-2-yl)amino]-5,6,7,8-tetrahydropyrido[3,4-d]pyrimidin-4(3H)-one], in data set [1], the concentration giving a half-maximal response (EC50) was determined as 0.12 µM. The compound further showed a CC50 at 3 days in data set [2] of 22.9 µM.
As to `Cc1nnc(-c2ccc(-n3c(NC(C)C)nc4c(c3=O)C[C@@H](C)N(C(=O)c3ccc(Cl)c(Cl)c3)C4)cc2)s1` [Compound C245, (6R)-7-(3,4-dichlorobenzoyl)-6-methyl-3-[4-(5-methyl-1,3,4-thiadiazol-2-yl)phenyl]-2-[(propan-2-yl)amino]-5,6,7,8-tetrahydropyrido[3,4-d]pyrimidin-4(3H)-one], in data set [1], the EC50 came to 0.17 µM. Further, in data set [2], the CC50 at 3 days is above 50 µM.
For `Cc1cc(-c2ccc(-n3c(NC(C)C)nc4c(c3=O)C[C@@H](C)N(C(=O)c3ccc(Cl)c(Cl)c3)C4)cc2)on1` [Compound C246, (6R)-7-(3,4-dichlorobenzoyl)-6-methyl-3-[4-(3-methyl-1,2-oxazol-5-yl)phenyl]-2-[(propan-2-yl)amino]-5,6,7,8-tetrahydropyrido[3,4-d]pyrimidin-4(3H)-one] the same measures were 0.19 µM and above 50 µM.
The matching figures for `Cc1csc(-c2ccc(-n3c(NC(C)C)nc4c(c3=O)C[C@@H](C)N(C(=O)c3ccc(Cl)c(Cl)c3)C4)cc2)n1` [Compound C247, (6R)-7-(3,4-dichlorobenzoyl)-6-methyl-3-[4-(4-methyl-1,3-thiazol-2-yl)phenyl]-2-[(propan-2-yl)amino]-5,6,7,8-tetrahydropyrido[3,4-d]pyrimidin-4(3H)-one]: 0.12 µM and above 50 µM.
Regarding `Cc1[nH]cnc1-c1ccc(-n2c(NC(C)C)nc3c(c2=O)C[C@@H](C)N(C(=O)c2ccc(Cl)c(Cl)c2)C3)cc1` [Compound C248, (6R)-7-(3,4-dichlorobenzoyl)-6-methyl-3-[4-(5-methyl-1H-imidazol-4-yl)phenyl]-2-[(propan-2-yl)amino]-5,6,7,8-tetrahydropyrido[3,4-d]pyrimidin-4(3H)-one], the half-maximal effective concentration (EC50) in data set [1] worked out at 0.13 µM. This compound gave a CC50 at 3 days in data set [2] of 31.1 µM.
As to `CC(C)Nc1nc2c(c(=O)n1-c1ccc(-c3n[nH]c(Br)n3)cc1)C[C@@H](C)N(C(=O)c1ccc(Cl)c(Cl)c1)C2` [Compound C249, (6R)-3-[4-(5-bromo-1H-1,2,4-triazol-3-yl)phenyl]-7-(3,4-dichlorobenzoyl)-6-methyl-2-[(propan-2-yl)amino]-5,6,7,8-tetrahydropyrido[3,4-d]pyrimidin-4(3H)-one], the EC50 in data set [1] came out at 0.49 µM. In data set [2], this compound yielded a CC50 at 3 days above 50 µM.
For `Cc1c[nH]c(-c2ccc(-n3c(NC(C)C)nc4c(c3=O)C[C@@H](C)N(C(=O)c3ccc(Cl)c(Cl)c3)C4)cc2)n1` [Compound C250, (6R)-7-(3,4-dichlorobenzoyl)-6-methyl-3-[4-(4-methyl-1H-imidazol-2-yl)phenyl]-2-[(propan-2-yl)amino]-5,6,7,8-tetrahydropyrido[3,4-d]pyrimidin-4(3H)-one] the same measures were 0.07 µM and 8.9 µM.
For `CNC(=O)c1ccc(-n2c(NC34CC(C3)C4)nc3c(c2=O)C[C@@H](C)N(C(=O)c2ccc(Cl)c(Cl)c2)C3)cc1` [Compound C251, 4-[(6R)-2-[(bicyclo[1.1.1]pentan-1-yl)amino]-7-(3,4-dichlorobenzoyl)-6-methyl-4-oxo-5,6,7,8-tetrahydropyrido[3,4-d]pyrimidin-3(4H)-yl]-N-methylbenzamide] the same measures were 0.25 µM and above 50 µM.
In the case of `CNC(=O)c1ccc(-n2c(N3CCC[C@H]3C)nc3c(c2=O)C[C@@H](C)N(C(=O)c2ccc(Cl)c(Cl)c2)C3)cc1` [Compound C252, 4-[(6R)-7-(3,4-dichlorobenzoyl)-6-methyl-2-[(2R)-2-methylpyrrolidin-1-yl]-4-oxo-5,6,7,8-tetrahydropyrido[3,4-d]pyrimidin-3(4H)-yl]-N-methylbenzamide], the EC50 in data set [1] came out at 0.04 µM. Also, the midpoint of cytotoxicity in data set [2], the CC50 at 3 days, lay at 25.9 µM.
